Counter-ions that a name gives are not always drawn. The source made the active and inactive calls.
How the values were obtained:
[1] = biological target: Voltage-gated inwardly rectifying potassium channel KCNH2 (Homo sapiens, UniProt Q12809); conditions: Potency;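 also: confirmatory quantitative high-throughput screen measuring inhibition of hERG channel activity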
[2] = biological target: T1, Rac GTPase-activating protein 1 (Homo sapiens, UniProt Q9H0H5); test: MgcRacGAP GTPase-activating activity inhibitors, confirmation, biochemical, ADP Hunter fluorescence, primary and confirmatory (AID 624330); assay type: functional
T1 sequence (Q9H0H5 whole entry): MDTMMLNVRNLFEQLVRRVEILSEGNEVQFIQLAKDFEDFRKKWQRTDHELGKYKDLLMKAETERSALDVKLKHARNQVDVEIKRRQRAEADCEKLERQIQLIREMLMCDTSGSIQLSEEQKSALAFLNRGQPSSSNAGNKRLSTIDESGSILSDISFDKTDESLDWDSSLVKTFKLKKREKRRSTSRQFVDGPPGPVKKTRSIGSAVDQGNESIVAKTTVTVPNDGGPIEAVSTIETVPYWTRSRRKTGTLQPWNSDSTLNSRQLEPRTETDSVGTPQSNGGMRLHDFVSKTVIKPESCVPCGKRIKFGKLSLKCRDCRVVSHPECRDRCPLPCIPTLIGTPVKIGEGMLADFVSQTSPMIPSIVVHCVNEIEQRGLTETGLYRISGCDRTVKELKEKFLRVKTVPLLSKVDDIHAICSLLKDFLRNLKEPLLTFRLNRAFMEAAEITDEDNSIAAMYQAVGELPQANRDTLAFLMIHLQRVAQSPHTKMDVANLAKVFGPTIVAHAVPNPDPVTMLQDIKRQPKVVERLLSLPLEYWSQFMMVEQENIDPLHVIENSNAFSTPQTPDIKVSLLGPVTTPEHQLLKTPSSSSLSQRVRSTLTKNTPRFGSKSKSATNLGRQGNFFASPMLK

[3] = biological target: 26S proteasome non-ATPase regulatory subunit 14 (Homo sapiens, UniProt O00487); test: inhibition of proteasome subunit RPN11 – biochemical, fluorescence polarization, uHTS hits, confirmation (AID 602368); assay type: functional
[4] = biological target: Prothrombin (Bos taurus, UniProt P00735); test: thrombin inhibition, dose response, biochemical, fluorescence polarization, uHTS hits (AID 602369); assay type: functional
[5] = biological target: 72 kDa type IV collagenase (Homo sapiens, UniProt P08253); test: Dose Response validation of uHTS RPN11 inhibitor hits using a MMP-2 Fluorescence assay.; assay type: functional
[6] = biological target: T2, Carboxy-terminal domain RNA polymerase II polypeptide A small phosphatase 1 (Homo sapiens, UniProt Q9GZU7); test: inhibitors of CTDSP1, concentration-response testing, biochemical assay, absorbance-based, actives from ultra-high-throughput screening (AID 540297); assay type: functional
T2 sequence (Q9GZU7 whole entry): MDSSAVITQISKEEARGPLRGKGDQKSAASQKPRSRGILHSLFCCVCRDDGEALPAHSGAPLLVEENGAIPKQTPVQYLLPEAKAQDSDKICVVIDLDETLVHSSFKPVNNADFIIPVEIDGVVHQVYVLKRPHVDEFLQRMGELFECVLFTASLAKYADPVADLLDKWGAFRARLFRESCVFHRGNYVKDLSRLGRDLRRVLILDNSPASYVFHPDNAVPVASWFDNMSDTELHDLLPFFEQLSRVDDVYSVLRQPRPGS

[7] = tested on: HEK293; test: cells; assay type: functional, cell-based; conditions: Homo sapiens
[8] = biological target: T3, Nuclear receptor subfamily 0 group B member 1 (Homo sapiens, UniProt P51843); test: Luminescence-based cell-based high throughput dose response assay for inhibitors of the orphan nuclear receptor subfamily 0, group B, member 1 (DAX1; NR0B1). [Related pubchem assays (depositor defined):AID504766, AID504790]; assay type: functional
T3 sequence (P51843 whole entry): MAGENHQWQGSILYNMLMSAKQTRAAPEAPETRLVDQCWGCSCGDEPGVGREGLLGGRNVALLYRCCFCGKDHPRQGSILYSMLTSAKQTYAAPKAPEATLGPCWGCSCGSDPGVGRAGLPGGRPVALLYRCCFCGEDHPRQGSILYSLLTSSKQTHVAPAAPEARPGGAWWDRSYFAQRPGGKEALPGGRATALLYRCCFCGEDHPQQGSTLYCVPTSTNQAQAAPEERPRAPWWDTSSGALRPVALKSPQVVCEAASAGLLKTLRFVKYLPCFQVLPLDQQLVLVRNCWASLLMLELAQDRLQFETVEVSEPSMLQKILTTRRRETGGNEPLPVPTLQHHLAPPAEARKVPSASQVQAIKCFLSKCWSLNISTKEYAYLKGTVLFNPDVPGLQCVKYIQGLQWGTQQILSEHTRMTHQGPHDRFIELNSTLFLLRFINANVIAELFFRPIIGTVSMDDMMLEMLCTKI

[9] = biological target: T4, Corticotropin-releasing factor receptor 2/Corticotropin-releasing factor-binding protein (Homo sapiens, UniProt P24387+Q13324); test: activators of CRF receptor 2 with binding protein – uHTS hits, confirmation (AID 602473); assay type: functional; conditions: read-out: EC50_Mean
T4 sequence (Q13324 whole entry): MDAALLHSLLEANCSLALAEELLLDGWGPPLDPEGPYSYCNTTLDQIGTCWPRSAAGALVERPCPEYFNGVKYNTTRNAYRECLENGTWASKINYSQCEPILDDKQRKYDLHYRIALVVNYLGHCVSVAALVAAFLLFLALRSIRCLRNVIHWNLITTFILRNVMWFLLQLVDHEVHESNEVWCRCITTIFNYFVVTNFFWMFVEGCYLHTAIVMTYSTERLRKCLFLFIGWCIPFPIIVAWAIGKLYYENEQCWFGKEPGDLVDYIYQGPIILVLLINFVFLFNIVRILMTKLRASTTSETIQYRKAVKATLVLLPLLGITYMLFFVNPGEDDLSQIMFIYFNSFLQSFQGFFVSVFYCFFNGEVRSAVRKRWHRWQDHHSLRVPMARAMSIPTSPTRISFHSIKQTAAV
T4 sequence (P24387 whole entry): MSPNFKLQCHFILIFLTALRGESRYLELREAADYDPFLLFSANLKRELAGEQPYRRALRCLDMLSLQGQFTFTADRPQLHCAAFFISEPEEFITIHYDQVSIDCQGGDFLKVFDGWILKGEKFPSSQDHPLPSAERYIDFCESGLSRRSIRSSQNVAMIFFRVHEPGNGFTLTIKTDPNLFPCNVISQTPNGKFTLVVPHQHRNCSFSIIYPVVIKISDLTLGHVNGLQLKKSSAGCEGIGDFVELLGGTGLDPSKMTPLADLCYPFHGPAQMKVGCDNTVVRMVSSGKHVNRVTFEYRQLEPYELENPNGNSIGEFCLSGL

[10] = biological target: T4, Corticotropin-releasing factor receptor 2/Corticotropin-releasing factor-binding protein; test: Dose Response confirmation of uHTS hits for small molecule antagonists of the CRF-binding protein and CRF-R2 receptor complex.; assay type: functional; conditions: read-out: IC50_Mean
[11] = biological target: Protein Wnt-3a (Mus musculus, UniProt P27467); test: Wnt3a-driven reporter signaling inhibition, dose response, selectivity assay for Gli-SUFU antagonist project, Wnt-LIGHT cells, luminescence (AID 651570); assay type: functional; conditions: read-out: IC50_Mean;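 also: Wnt-LIGHT reporter cells stimulated with conditioned medium from Wnt3a-producing cells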
[12] = tested on: Streptococcus sp. 'group A'; test: growth inhibition of control SK(-) GAS strain, dose response, counter-screen for streptokinase expression inhibitor project, luminescence, kanamycin, BacTiterGlo, confirmation (AID 1900); assay type: functional, organism-based
[13] = cells; assay type: functional
[14] = microbe, parasite or virus in culture; assay type: functional; conditions: Mycobacterium tuberculosis
[15] = tested on: Streptococcus; test: Group A Streptococcus viability loss, dose response, counter-screen for streptokinase expression inhibitor project, luminescence, BacTiterGlo (AID 1915); assay type: functional, organism-based;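 also: potency for reduction of bacterial viability or growth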
[16] = tested on: Vero; test: cells; assay type: functional, cell-based; conditions: Chlorocebus sabaeus
[17] = THP-1 cell cytotoxicity, dose response, cytotoxicity control for non-replicating M. tuberculosis project (AID 489025); assay type: functional
[18] = Vero E6 cell cytotoxicity, dose response, cytotoxicity control for non-replicating M. tuberculosis project, secondary assay (AID 492998); assay type: functional, VeroE6; conditions: Vero C1008
[19] = tested on: Vero; test: cells; assay type: functional; conditions: Chlorocebus sabaeus
[20] = biological target: T5, CAAX prenyl protease 2 (Homo sapiens, UniProt Q9Y256); test: human Rce1 protease inhibitors, dose response, biochemical, yeast membranes, quenched-peptide fluorescence, cherry-pick (AID 588849)
T5 sequence (Q9Y256 whole entry): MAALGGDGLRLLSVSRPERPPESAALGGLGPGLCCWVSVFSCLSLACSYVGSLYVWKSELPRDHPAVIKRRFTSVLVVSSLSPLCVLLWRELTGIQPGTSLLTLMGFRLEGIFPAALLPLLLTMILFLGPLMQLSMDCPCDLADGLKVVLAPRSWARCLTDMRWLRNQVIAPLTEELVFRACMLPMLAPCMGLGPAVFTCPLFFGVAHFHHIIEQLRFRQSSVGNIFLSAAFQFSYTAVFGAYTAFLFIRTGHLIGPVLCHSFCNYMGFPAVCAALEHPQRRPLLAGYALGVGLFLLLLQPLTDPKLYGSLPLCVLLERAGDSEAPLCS

[21] = biological target: T6, CAAX prenyl protease 1 (Saccharomyces cerevisiae S288c, UniProt P47154); test: Ste24 protease inhibitors, dose response, biochemical, S. cerevisiae, plate reader, cherry-pick (AID 488815)
T6 sequence (P47154 whole entry): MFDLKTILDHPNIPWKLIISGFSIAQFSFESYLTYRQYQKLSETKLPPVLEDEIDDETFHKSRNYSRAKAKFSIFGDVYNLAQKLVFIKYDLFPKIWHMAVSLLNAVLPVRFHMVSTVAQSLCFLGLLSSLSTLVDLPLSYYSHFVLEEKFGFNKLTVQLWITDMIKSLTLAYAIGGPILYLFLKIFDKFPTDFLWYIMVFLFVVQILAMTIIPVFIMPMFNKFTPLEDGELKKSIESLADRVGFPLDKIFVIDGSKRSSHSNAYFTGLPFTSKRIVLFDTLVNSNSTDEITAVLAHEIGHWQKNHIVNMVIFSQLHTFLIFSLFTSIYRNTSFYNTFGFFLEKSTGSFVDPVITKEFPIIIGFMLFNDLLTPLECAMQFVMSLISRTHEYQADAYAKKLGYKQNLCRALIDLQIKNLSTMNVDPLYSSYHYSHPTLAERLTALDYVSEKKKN

[22] = A Cell Based Secondary Assay To Explore Cytotoxicity of Compounds that Sensitize Mycobacterium Tuberculosis to Beta-Lactam Antibiotics.; assay type: functional
[23] = biological target: T7, Mitochondrial peptide methionine sulfoxide reductase (Bos taurus, UniProt P54149); assay type: functional;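 also: absorbance read-out, biochemical high-throughput dose-response screen for MsrA inhibitors, confirmatory; recombinant bovine MsrA coupled to E. coli TrxB with NADPH and selenocystamine; potency is for inhibitors of MsrA activity on DMSO substrate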
T7 sequence (P54149 whole entry): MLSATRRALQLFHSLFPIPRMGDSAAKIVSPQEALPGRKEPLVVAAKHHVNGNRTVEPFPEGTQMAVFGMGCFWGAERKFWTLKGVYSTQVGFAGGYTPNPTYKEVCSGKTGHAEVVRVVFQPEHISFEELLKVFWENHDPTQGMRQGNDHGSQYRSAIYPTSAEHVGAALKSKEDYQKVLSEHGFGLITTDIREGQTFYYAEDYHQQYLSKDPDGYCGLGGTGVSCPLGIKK

Chain of 26S proteasome non-ATPase regulatory subunit 14 (O00487 whole entry): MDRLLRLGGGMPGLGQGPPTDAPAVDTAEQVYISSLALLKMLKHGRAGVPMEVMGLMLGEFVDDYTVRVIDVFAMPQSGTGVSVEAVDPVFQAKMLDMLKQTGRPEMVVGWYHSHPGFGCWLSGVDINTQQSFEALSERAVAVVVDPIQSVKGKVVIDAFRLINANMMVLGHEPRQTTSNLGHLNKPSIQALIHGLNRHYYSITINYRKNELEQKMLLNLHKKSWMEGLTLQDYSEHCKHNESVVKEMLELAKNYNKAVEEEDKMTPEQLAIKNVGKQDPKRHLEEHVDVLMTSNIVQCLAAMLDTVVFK
Chain of 72 kDa type IV collagenase (P08253 whole entry, the tested form may be a part): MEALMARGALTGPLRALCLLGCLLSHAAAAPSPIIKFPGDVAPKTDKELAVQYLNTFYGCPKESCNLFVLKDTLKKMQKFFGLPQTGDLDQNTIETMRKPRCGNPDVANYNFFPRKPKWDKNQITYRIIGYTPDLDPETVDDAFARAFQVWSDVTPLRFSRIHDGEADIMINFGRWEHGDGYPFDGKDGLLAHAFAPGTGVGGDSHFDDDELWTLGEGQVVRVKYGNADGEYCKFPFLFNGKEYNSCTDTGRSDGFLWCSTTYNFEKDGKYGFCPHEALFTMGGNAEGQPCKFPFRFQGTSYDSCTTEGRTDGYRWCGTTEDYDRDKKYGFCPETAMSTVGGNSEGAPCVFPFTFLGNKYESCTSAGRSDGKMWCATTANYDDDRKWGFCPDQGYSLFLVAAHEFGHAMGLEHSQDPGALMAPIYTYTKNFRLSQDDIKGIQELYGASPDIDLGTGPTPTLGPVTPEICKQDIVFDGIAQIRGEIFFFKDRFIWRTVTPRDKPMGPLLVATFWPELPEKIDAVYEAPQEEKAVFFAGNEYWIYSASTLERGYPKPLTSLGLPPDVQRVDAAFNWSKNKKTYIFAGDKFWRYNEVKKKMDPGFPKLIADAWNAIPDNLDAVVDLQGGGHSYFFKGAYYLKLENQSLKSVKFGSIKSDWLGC
Chain of Voltage-gated inwardly rectifying potassium channel KCNH2 (Q12809 whole entry): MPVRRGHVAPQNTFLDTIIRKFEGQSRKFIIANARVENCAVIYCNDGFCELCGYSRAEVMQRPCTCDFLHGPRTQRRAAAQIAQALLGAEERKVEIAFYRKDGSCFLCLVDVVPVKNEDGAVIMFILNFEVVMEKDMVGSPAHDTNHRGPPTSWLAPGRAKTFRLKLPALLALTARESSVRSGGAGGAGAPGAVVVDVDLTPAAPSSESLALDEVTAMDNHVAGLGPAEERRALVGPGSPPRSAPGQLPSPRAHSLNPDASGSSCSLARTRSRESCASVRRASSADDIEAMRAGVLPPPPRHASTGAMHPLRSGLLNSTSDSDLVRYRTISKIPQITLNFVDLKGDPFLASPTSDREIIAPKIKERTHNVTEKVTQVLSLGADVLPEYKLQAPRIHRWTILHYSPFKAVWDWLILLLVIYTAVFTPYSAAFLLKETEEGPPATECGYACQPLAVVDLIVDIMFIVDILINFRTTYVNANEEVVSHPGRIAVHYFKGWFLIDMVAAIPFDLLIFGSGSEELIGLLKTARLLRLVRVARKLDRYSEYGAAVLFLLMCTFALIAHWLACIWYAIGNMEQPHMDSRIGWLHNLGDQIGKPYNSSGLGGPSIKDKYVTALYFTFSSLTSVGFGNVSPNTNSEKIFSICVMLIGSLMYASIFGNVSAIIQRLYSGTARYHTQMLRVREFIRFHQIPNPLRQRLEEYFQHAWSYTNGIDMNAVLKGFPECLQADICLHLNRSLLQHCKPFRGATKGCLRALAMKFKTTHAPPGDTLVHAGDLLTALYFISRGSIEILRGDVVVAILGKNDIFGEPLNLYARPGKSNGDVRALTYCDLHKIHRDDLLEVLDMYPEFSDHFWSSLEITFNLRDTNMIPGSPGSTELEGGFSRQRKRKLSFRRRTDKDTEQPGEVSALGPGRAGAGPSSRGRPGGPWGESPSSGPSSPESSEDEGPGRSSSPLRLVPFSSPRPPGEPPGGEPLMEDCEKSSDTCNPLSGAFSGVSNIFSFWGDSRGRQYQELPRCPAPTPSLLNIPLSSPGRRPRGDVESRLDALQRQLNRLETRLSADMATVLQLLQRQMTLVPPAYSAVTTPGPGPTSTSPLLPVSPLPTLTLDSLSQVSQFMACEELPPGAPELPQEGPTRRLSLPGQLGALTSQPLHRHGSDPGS
Chain of Protein Wnt-3a (P27467 whole entry): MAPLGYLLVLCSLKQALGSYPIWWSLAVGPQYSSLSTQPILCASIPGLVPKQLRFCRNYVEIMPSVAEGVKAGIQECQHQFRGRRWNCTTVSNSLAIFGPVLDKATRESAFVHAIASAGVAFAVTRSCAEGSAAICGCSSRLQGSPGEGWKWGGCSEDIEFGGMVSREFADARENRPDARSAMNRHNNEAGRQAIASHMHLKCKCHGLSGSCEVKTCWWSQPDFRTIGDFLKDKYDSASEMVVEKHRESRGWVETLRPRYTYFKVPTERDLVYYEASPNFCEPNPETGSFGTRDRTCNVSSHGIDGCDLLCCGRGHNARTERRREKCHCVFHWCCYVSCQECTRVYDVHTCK

CC(C)(CO)Cc1cc(C(C)(C)C)c(O)c(C(C)(C)C)c1
AC50 [1]: 35.5 µM (inconclusive)

CN1C(=O)/C(=C/C=C2/CCCN2C)N(C)C1=S
IC50 [2]: 24.2 µM (active) | IC50 [3]: 8.15 µM (active) | IC50 [4]: 29 µM (active) | IC50 [5]: > 100 µM (inactive)

O=C(Nc1nc2ccsc2c(=O)s1)c1ccc(F)cc1Cl
IC50 [6]: 31.7 µM (active) | IC50 [7]: > 67.5 µM (inactive) | IC50 [8]: > 67.5 µM (inactive)

O=C(O)CC(NNC(=O)c1ccccc1)C(=O)Nc1ccc([N+](=O)[O-])cc1 (stereo unspecified)
IC50 [7]: > 67.5 µM (inactive) | IC50 [8]: > 67.5 µM (inactive)

CC1(C)CC(NCCC(c2ccccc2)c2ccco2)CCO1 (stereo unspecified)
EC50 [9]: > 53 µM (inactive) | IC50 [7]: > 67.5 µM (inactive) | IC50 [10]: > 47.1 µM (inactive) | IC50 [8]: > 67.5 µM (inactive)

FC(F)Oc1ccc(-[n+]2cc(-c3ccccc3)n3c2CCCCC3)cc1
IC50 [11]: 12.5 µM (active)

CC(Oc1ccc2ccccc2c1)C(=O)NNC(=S)NC(=O)c1ccco1 (stereo unspecified)
EC50 [12]: 0.074 µM (active) | IC50 [13]: 6.03 µM (active) | CC50 [14]: 39.5 µM (active) | EC50 [15]: 0.432 µM (active) | IC50 [16]: 24.6 µM (active) | CC50 [17]: 27.3 µM (active) | CC50 [18]: > 20 µM (active) | CC50 [19]: > 25 µM (active)

COCCNc1nc2c(c(=O)n(C)c(=O)n2C)n1Cc1cccc(C)c1
IC50 [11]: 1.95 µM (active)

Cc1ccc(C)c(N2CCN(c3ncnc4c3cnn4-c3ccccc3)CC2)c1
IC50 [16]: > 25 µM (active) | CC50 [19]: > 25 µM (active)

O=C(COc1ccc(Cl)cc1Cl)OCC(=O)N1CCCc2ccccc21
IC50 [7]: > 67.5 µM (inactive) | IC50 [8]: > 67.5 µM (inactive)

COc1ccc(Cn2c(N)c(S(=O)(=O)c3cccs3)c3nc4ccccc4nc32)cc1
AC50 [20]: 4.33 µM (active) | AC50 [21]: 2.79 µM (active)

CCNc1nc(CN2CCCCC2)nc2scc(-c3ccccc3)c12
IC50 [11]: 5.03 µM (active) | CC50 [22]: > 40 µM (active)

COc1ccccc1NC(=O)CSc1ccc(-c2ccc(-n3cccn3)cc2)nn1
IC50 [3]: 15.7 µM (active) | IC50 [4]: > 100 µM (inactive) | IC50 [5]: > 100 µM (inactive)

O=[N+]([O-])c1ccc(N/N=C\c2cccn2-c2ccccc2)nc1
IC50 [3]: 23.5 µM (active) | IC50 [4]: 29.5 µM (active) | IC50 [5]: > 100 µM (inactive)

C/C(=N\Nc1ccc([N+](=O)[O-])cc1[N+](=O)[O-])c1cccnc1
IC50 [23]: 155 µM (inactive)

COC(=O)[C@H](NC(=O)c1cc(-c2ccccc2)nc2ccccc12)c1ccccc1
AC50 [1]: 0.794 µM (inconclusive)

COc1cc2c(cc1OC)-c1c/c(=N\c3c(C)cc(C)cc3C)n(C)c(=O)n1CC2 [TREQUINSIN HYDROCHLORIDE]
AC50 [1]: 35.5 µM (inconclusive)

— ChEMBL document CHEMBL1201862, “PubChem BioAssay data set” (2004)
